Source: US10829493B2, “Compositions and methods for treating KIT- and PDGFRA-mediated diseases” (Blueprint Medicines Corporation, priority 2019, dated 2020)
Several values for one entry are separate records, joined by “and”; a condition that tells them apart may be missing. Identical values can stand only once. Like-named read-outs stand apart in the source and are kept apart here.

Tests used:
[1] = Rat brain protein binding in rat brain slices; assay type: in vitro ADME; conditions: rat brain slices (300 um thick); 300 um thick rat brain slices (striatum area); read-out: fu,brain (rat brain slices)
Experimental: Alternatively, rat brain protein binding of compounds 4 and 63 was evaluated in vitro by employing 300 um thick rat brain slices (striatum area) in an incubation tray. The fu,brain of compounds 4 and 63 by this method was 0.329% and 0.057% respectively. In that case, the Kp,uu, brain of 4 and 63 are 0.028 and 0.044 respectively.

[2] = Brain penetration in rats, brain to plasma ratios (Kp,brain, Kpuu,brain); assay type: in vivo, Sprague-Dawley rats; conditions: for concentration at 24 h / Kp uu at 24 h: intravenous
Excerpt: To understand the brain penetration, brain to plasma ratios of the compounds were obtained in Sprague-Dawley (SD) rats. In vivo equilibrium distribution between blood and brain in preclinical species such as rats is a commonly used parameter to evaluate brain penetration. Kp,brain is the ratio of concentrations in brain and blood (Cbrain/Cplasma) The compound's passive diffusion characteristics, its affinity for membrane transporters at the blood-brain barrier (BBB), and the relative drug binding affinity differences between the plasma proteins and brain tissue influence the Kp,brain.
The animals received IV infusion of 1 mg/kg/hr of the compound over 24 hours via jugular vein cannulation. At 24 hours, blood was collected via tail vein bleeding or cardiac puncture (under anesthesia) and centrifuged to obtain plasma samples. Brain tissues were collected and homogenized with phosphate-buffered saline (PBS). The concentrations of the compounds were obtained in the plasma and brain homogenates by LC-MS/MS analysis.

UT-7 cells = assay: UT-7 cell proliferation with SCF stimulation as a measure of wild-type KIT activity (CellTiter-Glo); assay type: cell-based, human; conditions: Homo sapiens, UT7, 72 h, SCF-stimulated UT-7 cell proliferation
Excerpt: UT-7 Cell Proliferation with SCF Stimulation Assay as a Measure of Wild-Type KIT Activity
UT-7 cells are human megakaryoblastic leukemia cell lines that can be grown in culture with dependence on granulocyte macrophage colony stimulating factor (GM-CSF) or stem cell factor (SCF). UT-7 cells respond to SCF stimulation by activation of the KIT receptor tyrosine kinase and subsequent downstream signaling that can support cell growth and proliferation (Kuriu et al, 1999; Komatsu et al, 1991; Sasaki et al, 1995). Test compounds were assayed for their ability to inhibit SCF-stimulated proliferation of UT-7 cells.
Inhibition of SCF-stimulated UT-7 cell proliferation was assessed using the CellTiter-Glo assay that quantifies the amount of adenosine triphosphate (ATP) present, which is a readout of metabolically active cells and is directly proportional to the number of viable cells in culture. The ability of test compounds to inhibit SCF-stimulated UT-7 cell proliferation was determined using a 10-point dose curve ranging from 25 μM to 95.4 pM of test compound.
UT-7 cells were maintained in IMDM supplemented with 10% FBS, 5 ng/mL GM-CSF and 100 units/mL Penicillin-Streptomycin and grown in a 37° C. humidified tissue culture incubator. UT-7 cells were washed once with serum free, GM-CSF free IMDM. Cells were then resuspended in IMDM containing 4% FBS and 50 ng/mL SCF and seeded at 2500 cells per well in a volume of 22 μL in a 384-well microplate. A 10-point dose concentration series of test compounds (25.0 μM to 95.4 pM) were then added to the cells in a volume of 3.1 μL to each well (0.25% DMSO final concentration) and placed in a tissue culture incubator (5% CO2, 37° C.) for 72 hours. After 3-days with test compound, CellTiter-Glo reagent was prepared fresh and 25 μL of reagent was added to each well. The plate was mixed by shaking for 10 minutes at RT at 300 rpm on a plate shaker. The plate was read on an EnVision plate reader using the Ultra Sensitive Luminescence protocol for a 384-well plate.

[3] = Rat brain protein binding in brain homogenate, equilibrium dialysis; assay type: in vitro ADME; conditions: equilibrium dialysis 5 hours at 37° C., read-out: fu,brain (brain homogenate)
Experimental: Similarly, rat brain protein binding of 4 and 63 were also evaluated in vitro using equilibrium dialysis method. 1 μM of the compound was assessed in brain homogenate in a dialysis block for 5 hours at 37° C. Samples from the donor and receiver sides were analyzed by LC-MS/MS. Brain protein bound and unbound fractions were calculated using the equations mentions above (Equations 1 and 2). Due to extensive protein binding, 4 was diluted further 4× for the brain homogenate measurement. The fu,brain of 4 and 63 were 0.29% and 0.1% respectively.

[4] = Rat plasma protein binding, equilibrium dialysis; assay type: in vitro ADME; conditions: 100% rat plasma, equilibrium dialysis 5 hours at 37° C.; for fraction unbound at 5 h, 10 μM: read-out: Fraction unbound fu,p, rat plasma
Experimental: Rat plasma protein binding of 4 and 63 were evaluated in vitro using an equilibrium dialysis method. […] Samples from the donor and receiver sides were analyzed by LC-MS/MS. Plasma protein bound and unbound fractions were calculated using the following equations—d Fraction bound (fb)*(%)=100×([Donor]5h−[Receiver]5h)/[Donor]5h (Equation 1) Fraction unbound (fu),p*(%)=100−% Bound* (Equation 2) where: [Donor]5h is measured donor concentration at 5-hour; [Received]5h is measured receiver concentration at 5-hour; fb* is bound fraction determined from plasma; fu,p* is calculated unbound fraction for plasma. Warfarin and quinidine were used as positive controls.

[5] = Monkey brain to plasma ratio (Kp, Kpuu) after iv bolus and 2-hour iv infusion; assay type: in vivo
Experimental: A single IV bolus dose followed by a 2-hour iv infusion of the compound was administered to the monkey (3 monkeys/compound). Blood was collected from a femoral vein predose, right after the bolus administration and at the end of the infusion. The monkey was euthanized after the infusion and brain tissue was collected. Toxicokinetic evaluation of plasma (obtained by centrifugation of blood) and brain (homogenized in a buffer) was conducted to obtain brain to plasma ratio (Kp) of the compound. Kpuu was calculated by taking into consideration the fu,plasma and fu,brain as discussed above.

KIT D816V = KIT D816V (Homo sapiens (Human), UniProt P10721, D816V/V560G); assay: HMC1.2 autophosphorylation assay (phospho-Y719 KIT AlphaLISA); assay type: cell-based; conditions: HMC1.2 cell line, KIT autophosphorylation at tyrosine 719, 90 minutes; read-out: KIT (P-KIT HMC1.2 (nM))
Chain of KIT D816V (P10721 26-976 V560G/D816V): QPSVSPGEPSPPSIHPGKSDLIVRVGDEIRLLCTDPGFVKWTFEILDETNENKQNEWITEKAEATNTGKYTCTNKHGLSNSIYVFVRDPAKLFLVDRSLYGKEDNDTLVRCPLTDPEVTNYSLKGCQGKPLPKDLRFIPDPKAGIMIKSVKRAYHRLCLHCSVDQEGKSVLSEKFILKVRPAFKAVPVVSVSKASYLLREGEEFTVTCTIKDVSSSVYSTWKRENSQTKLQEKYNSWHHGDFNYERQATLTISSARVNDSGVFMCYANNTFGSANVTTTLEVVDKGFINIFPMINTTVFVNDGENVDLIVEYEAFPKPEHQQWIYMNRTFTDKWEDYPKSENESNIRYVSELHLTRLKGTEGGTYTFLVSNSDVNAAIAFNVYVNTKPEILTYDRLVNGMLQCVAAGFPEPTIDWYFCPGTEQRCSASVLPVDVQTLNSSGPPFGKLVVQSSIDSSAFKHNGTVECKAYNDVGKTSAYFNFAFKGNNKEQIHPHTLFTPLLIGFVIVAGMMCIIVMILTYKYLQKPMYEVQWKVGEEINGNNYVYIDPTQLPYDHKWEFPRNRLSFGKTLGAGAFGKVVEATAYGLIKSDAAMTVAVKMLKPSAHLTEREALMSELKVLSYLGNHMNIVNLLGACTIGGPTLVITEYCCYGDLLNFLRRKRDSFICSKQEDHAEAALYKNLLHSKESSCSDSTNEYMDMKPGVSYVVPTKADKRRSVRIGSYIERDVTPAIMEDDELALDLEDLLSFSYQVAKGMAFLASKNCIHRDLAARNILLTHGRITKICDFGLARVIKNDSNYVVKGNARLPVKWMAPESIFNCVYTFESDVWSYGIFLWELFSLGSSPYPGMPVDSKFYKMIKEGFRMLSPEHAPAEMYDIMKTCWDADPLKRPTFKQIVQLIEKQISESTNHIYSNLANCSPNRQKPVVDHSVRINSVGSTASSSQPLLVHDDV
Experimental: 10,000 HMC1.2 cells were incubated in 22 μL culture media (phenol-red free IMDM, no serum) in each well of a 384-well plate and serum starved overnight in a tissue culture incubator (5% CO2, 37° C.). […] 10 μL of 100 μg/mL streptavidin donor beads (Perkin Elmer) were added to each well, blocked from light with solid black adhesive and shaken at 300 rpm at room temperature for 2 hours. Fluorescence signal was obtained on Envision (Perkin Elmer) by AlphaScreen 384 well HTS protocol.

[6] = Sprague-Dawley, rat, brain, 1 mg/kg/hr, individual rats (Rat 1-3), IV infusion 1 mg/kg/hr over 24 hours, at 24 hours, read-out: Brain Concentration
[7] = Sprague-Dawley, rat, brain, 1 mg/kg/hr, mean of 3 rats, IV infusion 1 mg/kg/hr over 24 hours, at 24 hours, read-out: Brain Concentration (ng/mL), Mean
[8] = Sprague-Dawley, rat, brain, 1 mg/kg/hr, rat, from total mean brain concentration and fu,brain (homogenate), read-out: Unbound concentration, Brain
[9] = Sprague-Dawley, rat, plasma, 1 mg/kg/hr, individual rats (Rat 1-3), IV infusion 1 mg/kg/hr over 24 hours, at 24 hours, read-out: Plasma Concentration
[10] = Sprague-Dawley, rat, plasma, 1 mg/kg/hr, mean of 3 rats, IV infusion 1 mg/kg/hr over 24 hours, at 24 hours, read-out: Plasma Concentration (ng/mL), Mean
[11] = Sprague-Dawley, rat, plasma, 1 mg/kg/hr, rat, from total mean plasma concentration and fu,p, read-out: Unbound concentration, Plasma
[12] = individual rats (Rat 1-3), IV infusion 1 mg/kg/hr over 24 hours, at 24 hours
[13] = mean of 3 rats, IV infusion 1 mg/kg/hr over 24 hours, at 24 hours
[14] = rat, unbound brain to plasma ratio, fu,brain from brain homogenate

| fraction unbound [1] | concentration at 24 h [2, 6] [ng/mL] | concentration at 24 h [2, 7] [ng/mL] | concentration at 24 h [2, 8] [ng/mL] | concentration at 24 h [2, 9] [ng/mL] | concentration at 24 h [2, 10] [ng/mL] | concentration at 24 h [2, 11] [ng/mL] | Brain Concentration [2, 12] | Kp, brain [2, 12] | Plasma Concentration [2, 12] | Kp, brain, Mean [2, 13] | Kpuu,brain [2, 14] | fraction unbound at 5 h, 1 μM [3] | Fraction bound (fb), rat plasma [4] [%] | fraction unbound at 5 h, 10 μM [4] | Structure (SMILES) | IC50 (UT-7 cells) [nM] | also measured |
| --- | --- | --- | --- | --- | --- | --- | --- | --- | --- | --- | --- | --- | --- | --- | --- | --- | --- |
| 0.00329 | 152 | 183 | 0.53 | 859 | 1050 | 21.9 | 188 ng/mL and 208 ng/mL | 0.177 and 0.168 and 0.174 | 1120 ng/mL and 1180 ng/mL | 0.17 and 0.174 | 0.024 | 0.0029 | 97.92 | 0.0208 | C[C@](N)(c1ccc(F)cc1)c1cnc(N2CCN(c3ncnn4cc(-c5cnn(CCO)c5)cc34)CC2)nc1 [Compound 4, (S)-2-(4-(4-(4-(5-(1-amino-1-(4-fluorophenyl)ethyl)pyrimidin-2-yl)piperazin-1-yl)pyrrolo[2,1-f][1,2,4]triazin-6-yl)-1H-pyrazol-1-yl)ethanol] | < 90 | Kp,uu, brain (brain slice method) ([2]; rat, fu,brain from brain slices): 0.028; Kp (Brain:Plasma) ([5]; IV bolus followed by 2-hour iv infusion): 0.09; Kpuu ([5]; calculated with fu,plasma and fu,brain): 0.01 |
| 0.00057 | 1920 | 1700 | 1.7 | 1140 | 1010 | 2.02 | 1890 ng/mL and 1300 ng/mL | 1.68 and 2.40 and 1.18 | 789 ng/mL and 1100 ng/mL | 1.75 | 0.84 | 0.001 | 99.8 | 0.002 | CCn1cc(-c2cc3c(N4CCN(c5ncc([C@@](C)(N)c6ccc(F)cc6)cn5)CC4)ncnn3c2)cn1 [Compound 63, reference compound] | 150 to 200 | Kp uu at 24 h ([2]; Sprague-Dawley, rat, brain, 1 mg/kg/hr, rat, fu,brain from brain slices, read-out: Kp,uu, brain (brain slice method)): 0.044; Kp uu at 24 h ([2]; Sprague-Dawley, rat, brain, 1 mg/kg/hr, rat, unbound brain to plasma ratio, fu,brain from brain homogenate, read-out: Kpuu,brain): 0.84; Kp at 24 h ([2]; Sprague-Dawley, rat, brain, iv, 1 mg/kg/hr, mean of 3 rats, IV infusion 1 mg/kg/hr over 24 hours, at 24 hours, read-out: Kp, brain, Mean): 1.8; IC50 (KIT D816V): < 4.5 nM; Kp at 2 h ([5]; brain, IV bolus followed by 2-hour iv infusion): 1.86; Kp uu at 2 h ([5]; intravenous, calculated with fu,plasma and fu,brain): 0.92 |
